Tested on: RON substance synthetase
Test: Substrate specificity of the enzyme
Type: biochemical, Leuconostoc mesenteroides subsp. dextranicum, BL-75
Conditions: as substrate of the enzyme

| Compound | Formation of the RON substance (substrate specificity) |
| --- | --- |
| OC[C@H]1O[C@H](O[C@H]2[C@H](O)[C@@H](O)C(O)O[C@@H]2CO)[C@H](O)[C@@H](O)[C@@H]1O (mixture of isomers) [maltose] | not observed |
| O=C(CO)[C@@H](O)[C@H](O)[C@H](O)CO [fructose] | not observed |
| OC[C@H]1OC(O)[C@H](O)[C@@H](O)[C@@H]1O (some centres unmarked) [glucose] | not observed |
| OC[C@H]1O[C@H](OC[C@H]2OC(O)[C@H](O)[C@@H](O)[C@@H]2O)[C@H](O)[C@@H](O)[C@@H]1O (some centres unmarked) [isomaltose] | not observed |
| OC[C@H]1O[C@@](CO)(O[C@H]2O[C@H](CO)[C@@H](O)[C@H](O)[C@H]2O)[C@@H](O)[C@@H]1O [sucrose] | reacts only with sucrose |

Tested on: RON substance synthetase
Test: Inhibition and activation of the enzyme by metal chlorides
Type: biochemical, Leuconostoc mesenteroides subsp. dextranicum, BL-75
Conditions: 1 mM metal chloride; not added = 100; 30 min
Description: A substrate solution comprising sucrose (60 w/v %) and an acetate buffer (0.3M, pH 5.5), which was warmed to 30° C. in advance, was mixed with an enzyme solution (0.5 to 1 U/ml) warmed to 30° C. in an amount 4 times the amount of the substrate solution, and the mixture was sufficiently stirred and the reaction was carried out at 30° C. for 30 minutes. To the reaction mixture a 40 mM of NaOH solution was added in an amount 5 times of the amount of the reaction mixture to stop the reaction. The reaction-stopped mixture was appropriately diluted and reducing sugar was determined as fructose by the Somogyi method [M. Somogyi, J. Biol. Chem., 160, 61 (1945)]. As the control, reducing sugar in the enzyme reaction-stopped mixture treated in the same manner without adding sucrose was determined as fructose, and correction was carried out. The quantity of sucrose participating in the reaction was determined from the quantity of fructose.
The relative activities at the addition of the different metal chlorides in the final concentration of 1 mM were determined by the standard method. The relative value was expressed in percent comparing with the activity without addition of any metal chloride.

| Compound | Relative Activity [%] |
| --- | --- |
| [Ca+2].[Cl-].[Cl-] [CaCl2] | 110 |
| [Cl-].[Cl-].[Co+2] [CoCl2] | 95 |
| [Cl][Cu][Cl] [CuCl2] | 50 |
| [Cl][Fe][Cl] [FeCl2] | 103 |
| [Cl][Fe]([Cl])[Cl] [FeCl3] | 82 |
| [Cl-].[Cl-].[Mg+2] [MgCl2] | 78 |
| [Cl][Mn][Cl] [MnCl2] | 75 |
| [Cl][Ni][Cl] [NiCl2] | 98 |
| [Cl-].[Cl-].[Zn+2] [ZnCl2] | 93 |

Reference: patent US5565342A (priority 1989, dated 1996)
